We go through 23 compounds from ChEMBL document CHEMBL1268982, “Design, synthesis, and structure-activity relationship studies of N-arylsulfonyl morpholines as γ-secretase inhibitors” (Bioorg Med Chem Lett, 2010).

Bounds are passed on as bounds.

A short description of series [1]: Inhibition of gamma-secretase-mediated amyloid beta-40 production.
A short description of series [2]: AUC (0 to 6 hrs) in rat at 10 mg/kg, po. The series is classed as ADME, organism-based. Details: time < 6 hr, dose 10 mg/kg, route oral. The note with it: plasma.
Series [3] addresses Cytochrome P450 3A4 (Homo sapiens, UniProt P08684). Nature of the series: Inhibition of CYP3A4 after 30 mins. In kind it is ADME.

Chain of Cytochrome P450 3A4 (P08684 whole entry): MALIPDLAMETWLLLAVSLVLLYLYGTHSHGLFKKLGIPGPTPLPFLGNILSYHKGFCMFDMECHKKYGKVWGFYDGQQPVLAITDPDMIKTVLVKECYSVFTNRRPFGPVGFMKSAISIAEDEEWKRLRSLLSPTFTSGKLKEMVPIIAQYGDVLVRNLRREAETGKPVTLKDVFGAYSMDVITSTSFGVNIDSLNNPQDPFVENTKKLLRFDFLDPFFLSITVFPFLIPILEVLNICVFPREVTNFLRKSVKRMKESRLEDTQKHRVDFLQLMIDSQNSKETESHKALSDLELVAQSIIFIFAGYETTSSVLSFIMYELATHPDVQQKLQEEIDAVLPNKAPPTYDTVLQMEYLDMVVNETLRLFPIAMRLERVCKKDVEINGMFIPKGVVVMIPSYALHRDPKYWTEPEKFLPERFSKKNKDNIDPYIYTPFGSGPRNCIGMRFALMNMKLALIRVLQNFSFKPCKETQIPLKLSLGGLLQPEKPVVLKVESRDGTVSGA

Take `CC(C)[C@@H]1COC[C@H](C2(OC(=O)N3CC4CCC(C3)N4)CC2)N1S(=O)(=O)c1ccc(Cl)cc1`: the figures for the IC50 in series [1] and in series [3] were 2 nM and 500 nM, respectively. This compound displayed an AUC(0-t) at 6 h in series [2] of 4.97 µM·h.
For `CC(C)[C@@H]1COC[C@H](C2(OC(=O)N3CC[C@@H](O)C3)CC2)N1S(=O)(=O)c1ccc(Cl)cc1` the same measures were 18.9 nM, 13600 nM and 0.036 µM·h.
Take `CC(C)[C@@H]1COC[C@H](C2(OC(=O)N3CCC(CO)CC3)CC2)N1S(=O)(=O)c1ccc(Cl)cc1`: the IC50 turned out to be 6.5 nM in series [1] and 13800 nM in series [3].
For `CC(C)[C@@H]1COC[C@H](C2(OC(=O)N3CC[C@H](O)C3)CC2)N1S(=O)(=O)c1ccc(Cl)cc1` the same measures were 17 nM and 30000 nM.
Consider `CC(C)[C@@H]1COC[C@H](C2(OC(=O)N3CC4CNCC4C3)CC2)N1S(=O)(=O)c1ccc(Cl)cc1` (stereo partly specified), for which the values for the IC50 in series [1] and in series [3] were 9.3 nM and 6400 nM, respectively. In series [2], this compound showed an AUC(0-t) at 6 h of 1.12 µM·h.
For `CC(C)[C@@H]1COC[C@H](C2(OC(=O)N3CCNCC3)CC2)N1S(=O)(=O)c1ccc(Cl)cc1` the same measures were 14.5 nM, 300 nM and 3.93 µM·h.
As for `CC(C)(C)[C@@H]1COC[C@H](COC(=O)N2CCN(C(C)(C)CO)CC2)N1S(=O)(=O)c1ccc(Cl)cc1`, the IC50 was 34.7 nM in series [1] and 23800 nM in series [3].
For `CC(C)(C)[C@@H]1COC[C@H](COC(=O)N2CCC(CO)CC2)N1S(=O)(=O)c1ccc(Cl)cc1` the same measures were 108 nM and 7100 nM.
For `CC1([C@@H]2COC[C@H](COC(=O)N3CCC(CO)CC3)N2S(=O)(=O)c2ccc(Cl)cc2)CC1` the same measures were 131 nM and 5500 nM.
For `CC1([C@@H]2COC[C@H](COC(=O)N3CCC(N4CCCCC4)CC3)N2S(=O)(=O)c2ccc(Cl)cc2)CC1` the same measures were 20.4 nM and 1500 nM.
In the case of `CC1([C@@H]2COC[C@H](COC(=O)N3CCN(C(C)(C)CO)CC3)N2S(=O)(=O)c2ccc(Cl)cc2)CC1`, the IC50 came to 39.3 nM in series [1] and 500 nM in series [3].
For `O=C(OC1([C@H]2COC[C@@H](CC3CC3)N2S(=O)(=O)c2ccc(Cl)cc2)CC1)N1CC2CCC(C1)N2`, the IC50 in series [1] is 0.8 nM; in series [3], 800 nM. In series [2], the AUC(0-t) at 6 h is 4.58 µM·h.
For `O=C(OC1([C@H]2COC[C@@H](CC3CC3)N2S(=O)(=O)c2ccc(Cl)cc2)CC1)N1CC2CCC(C1)N2CCO` the same measures were 0.9 nM, 2300 nM and 1.28 µM·h.
For `CC(=O)N1C2CCC1CN(C(=O)OC1([C@H]3COC[C@@H](CC4CC4)N3S(=O)(=O)c3ccc(Cl)cc3)CC1)C2` the same measures were 4.4 nM, more than 30000 nM and 0.013 µM·h.
For `CCNC(=O)N1C2CCC1CN(C(=O)OC1([C@H]3COC[C@@H](CC4CC4)N3S(=O)(=O)c3ccc(Cl)cc3)CC1)C2` the same measures were 5.5 nM, more than 30000 nM and 0.06 µM·h.
`O=C(OC1([C@H]2COC[C@@H](CC3CC3)N2S(=O)(=O)c2ccc(Cl)cc2)CC1)N1CC2CC1CN2CCO` (stereo partly specified): the IC50 in series [1] amounted to 3.6 nM; in series [3] it was 3200 nM. The same compound displayed an AUC(0-t) at 6 h in series [2] of 1.35 µM·h.
For `C[C@@H]1CN(C(=O)OC2([C@H]3COC[C@@H](CC4CC4)N3S(=O)(=O)c3ccc(Cl)cc3)CC2)C[C@H](C)N1CCO` the same measures were 11.6 nM, 2000 nM and 1.23 µM·h.
For `CN1CCN(C(=O)OC2([C@H]3COC[C@@H](CC4CC4)N3S(=O)(=O)c3ccc(Cl)cc3)CC2)CC1=O` the same measures were 5.7 nM, 1400 nM and 1.02 µM·h.
Consider `CC[C@H]1CN(C(C)=O)[C@H](C)CN1C(=O)OC1([C@H]2COC[C@@H](CC3CC3)N2S(=O)(=O)c2ccc(Cl)cc2)CC1`, for which the IC50 was 29.3 nM in series [1] and more than 30000 nM in series [3].
Consider `CC(C)(CO)N1CCN(C(=O)OC2([C@H]3COC[C@@H](CC4CC4)N3S(=O)(=O)c3ccc(Cl)cc3)CC2)CC1`, for which the IC50 in series [1] is 27.6 nM; in series [3], more than 30000 nM. Also, the AUC(0-t) at 6 h in series [2] was 0.077 µM·h.
For `O=C(OC1([C@H]2COC[C@@H](CC3CC3)N2S(=O)(=O)c2ccc(Cl)cc2)CC1)N1CCC2(CCN2)CC1` the same measures were 3.1 nM, 11300 nM and 1.34 µM·h.
Take `CN1CCC12CCN(C(=O)OC1([C@H]3COC[C@@H](CC4CC4)N3S(=O)(=O)c3ccc(Cl)cc3)CC1)CC2`: the IC50 in series [1] is 2.6 nM; in series [3], 30000 nM. The compound further displayed an AUC(0-t) at 6 h in series [2] of 0.894 µM·h.
For the compound `O=C1CC2(CCN(C(=O)OC3([C@H]4COC[C@@H](CC5CC5)N4S(=O)(=O)c4ccc(Cl)cc4)CC3)CC2)N1`, the IC50 is 7.4 nM in series [1] and more than 30000 nM in series [3]. This compound also gave an AUC(0-t) at 6 h in series [2] of 0.037 µM·h.

What is called IC50 is the midpoint of a concentration-inhibition curve. Lower therefore signals higher potency. In general, AUC(0-t) refers to the area under the concentration-time curve up to a stated or last time point. A lower AUC(0-t) goes with low exposure.
